Experimental data taken from patent US6743568B2, “Cyanine dyes” (Kabushiki Kaisha Hayashibara Seibutsu Kagaku Kenkyujo, priority 2000, dated 2004).
Where two headings read alike, the source gives them in different places.

Legend:
[1] = Decomposition point of cyanine dye by DTA/TGA; format: physicochemical; conditions: temperature at which specimen begins to lose weight on TGA; heating rate 10° C./min
From the text: An adequate amount of any one of the cyanine dyes in Table 1 as a test specimen was placed in a vessel and subjected to conventional differential thermal analysis (hereinafter abbreviated as “DTA”) and thermogravimetric analysis (hereinafter abbreviated as “TGA”) using “MODEL TG/DTA 220”, a digital thermo analyzer commercialized by Seiko Instruments Inc., Tokyo, Japan, to determine their decomposition points, i.e., temperatures at which the cyanine dyes as test specimens begin to lose their weight on TGA. In parallel, conventional related compounds represented by Chemical Formulae 73 and 76 were analyzed similarly as above. […] In DTA and TGA, the environmental temperature was set to an increasing temperature mode at a rate of 10° C./min.

[2] = Solubility of cyanine dye in DAA at 20° C.; format: physicochemical; conditions: in diacetone alcohol (DAA) at 20° C.
Experimental: For the cyanine dyes in Table 1, they were measured in a conventional manner for solubility in […] at 20° C. In parallel, conventional related compounds represented by Chemical Formulae 73 to 76 were also measured for solubility in DAA in a similar way.

[3] = diacetone alcohol (DAA), 20 °C, organic solvent or mixture, read-out: Solubility

| SMILES | Decomposition point (° C.) [1] [°C] | Solubility [2, 3] [mg/mL] | Solubility [2] [mg/mL] |
| --- | --- | --- | --- |
| CN1C(=CC=CC2=[N+](C)c3ccc4ccccc4c3C2(C)C)C(C)(C)c2ccc3ccccc3c21 [Chemical Formula 43] | 304.7 | 2.7 | – |
| CCCCN1C(=CC=CC2=[N+](CCC)c3ccc4ccccc4c3C2(C)C)C(C)(C)c2c1ccc1ccccc21 [Chemical Formula 75, reference compound] | 269.0 | 19 | – |
| CCCCN1C(=CC=CC2=[N+](CC)c3ccc4ccccc4c3C2(C)C)C(C)(C)c2c1ccc1ccccc21 [Chemical Formula 74, reference compound] | 211.5 | – | 22 |
| CCCCN1C(=CC=CC2=[N+](CCCC)c3ccc4ccccc4c3C2(C)C)C(C)(C)c2c1ccc1ccccc21 [Chemical Formula 76, reference compound] | 266.1 | – | 17 |
| CCCCN1C(=CC=CC2=[N+](C)c3ccc4ccccc4c3C2(C)C)C(C)(C)c2c1ccc1ccccc21 [Chemical Formula 14] | 279.8 | – | 73 |
| CCCC[N+]1=C(C=CC=C2N(C)c3c(ccc4ccccc34)C2(C)C)C(C)(C)c2c1ccc1ccccc21 [Chemical Formula 50] | 261.3 | 64 | – |
| CCCCN1C(=CC=CC2=[N+](CC)c3ccc4ccccc4c3C2(C)C)C(C)(C)c2c1ccc1ccccc21 [Chemical Formula 19] | 281.6 | – | 23 |
| CN1C(=CC=CC2=[N+](C)c3ccc4ccccc4c3C2(C)C)C(C)(C)c2c1ccc1ccccc21 [Chemical Formula 16] | 314.5 | 1.1 | – |
| CCCN1C(=CC=CC2=[N+](CC)c3ccc4ccccc4c3C2(C)C)C(C)(C)c2c1ccc1ccccc21 [Chemical Formula 21] | 301.9 | 2.8 | – |
| CCCCN1C(=CC=CC2=[N+](C)c3ccc4ccccc4c3C2(C)C)C(C)(C)c2c1ccc1ccccc21 [Chemical Formula 13] | 264.7 | – | 143 |
| CCCCN1C(=CC=CC2=[N+](CC)c3ccc4ccccc4c3C2(C)C)C(C)(C)c2c1ccc1ccccc21 [Chemical Formula 20] | 281.8 | – | 140 |
| CCCCN1C(=CC=CC2=[N+](C)c3ccc4ccccc4c3C2(C)C)C(C)(C)c2c1ccc1ccccc21 [Chemical Formula 73, reference compound] | 242.2 | – | 42 |
| CCCCN1/C(=C\C=C\C2=[N+](CCCC)c3ccc4ccccc4c3C2(C)C)C(C)(C)c2c1ccc1ccccc21 [Chemical Formula 35] | 280.1 | – | 6.4 |
| CCCCN1C(=CC=CC2=[N+](CCCC)c3ccc4ccccc4c3C2(C)C)C(C)(C)c2c1ccc1ccccc21 [Chemical Formula 33] | 284.2 | – | 61 |
